Measurements from patent publication US10112933B2, “Methods and compositions for treatment of fibrosis” (Baylor College of Medicine, priority 2013, dated 2018).

Tests used:
[1] = target: recombinant Stat3 (binding to EGFR Y1068 phosphododecapeptide) (Homo sapiens, UniProt P40763); assay: Stat3 SH2/pY-peptide SPR binding inhibition assay; details: Stat3 500 nM, immobilized EGFR Y1068 phosphododecapeptide; read-out: SPR IC50 (competition with pY-peptide for binding to Stat3)
Excerpt: Data shown are representative of 2 or more experiments. The equilibrium binding levels obtained in the absence or presence of compounds were normalized (response obtained in the presence of compound÷the response obtained in the absence of compound×100), plotted against the log concentration (nM) of the compounds (panel G). The experimental points fit to a competitive binding curve that uses a four-parameter logistic equation (see exemplary methods for details). These curves were used to calculate IC50 (Table 1).
Stat3 SH2/pY-peptide binding assay. Stat3 binding assays were performed at 25° C. with a BIAcore 3000 biosensor using 20 mM Tris buffer pH 8 containing 2 mM mercaptoethanol and 5% DMSO as the running buffer (Kim et al., 2005). Phosphorylated and control non-phosphorylated biotinylated EGFR derived dodecapeptides based on the sequence surrounding Y1068 (Shao et al., 2004) were immobilized on a streptavidin coated sensor chip (BIAcore inc., Picataway N.J.). The binding of Stat3 was conducted in 20 mM Tris buffer pH 8 containing 2 mM β-mercaptoethanol at a flow rate of 10 uL/min for 1-2 minute. Aliquots of Stat3 at 500 nM were premixed with compound to achieve a final concentration of 1-1,000 uM and incubated at 4° C. prior to being injected onto the sensor chip. The chip was regenerated by injecting 10 uL of 100 mM glycine at pH 1.5 after each sample injection. A control (Stat3 with DMSO but without compound) was run at the beginning and the end of each cycle (40 sample injections) to ensure that the integrity of the sensor chip was maintained throughout the cycle run. The average of the two controls was normalized to 100% and used to evaluate the effect of each compound on Stat3 binding. Responses were normalized by dividing the value at 2 min by the response obtained in the absence of compounds at 2 min and multiplying by 100. IC50 values were determined by plotting % maximum response as a function of log concentration of compound and fitting the experimental points to a competitive binding model using a four parameter logistic equation: R=Rhigh−(Rhigh−Rlow)/(1+conc/A1)^A2, where R=percent response at inhibitor concentration, Rhigh=percent response with no compound, Rlow=percent response at highest compound concentration, A2=fitting parameter (slope) and A1=IC50 (BIAevaluation Software version 4.1).
EXP IIA. Stat3/pY-peptide SPR binding inhibition assay. Stat3 pY-peptide binding assays is performed at 25° C. using a BIAcore 3000 biosensor as described (Xu et al., 2009). Briefly, phosphorylated and control nonphosphorylated biotinylated EGFR derived dodecapeptides based on the sequence surrounding Y1068 are immobilized on a streptavidin coated sensor chip (BIAcore Inc., Piscataway N.J.). […]

Stat3:hSIE complex = target: T1, Stat3:hSIE complex (Homo sapiens, UniProt P40763); assay: Electrophoretic mobility shift assay (Stat3 DNA binding, hSIE probe); assay type: biochemical; details: extracts of IL-6-stimulated HepG2 cells, compound 300 μM
T1 construct: endogenous in cells; host or cells: HepG2
T1 sequence (P40763 2-770 limits assumed, one chain of several): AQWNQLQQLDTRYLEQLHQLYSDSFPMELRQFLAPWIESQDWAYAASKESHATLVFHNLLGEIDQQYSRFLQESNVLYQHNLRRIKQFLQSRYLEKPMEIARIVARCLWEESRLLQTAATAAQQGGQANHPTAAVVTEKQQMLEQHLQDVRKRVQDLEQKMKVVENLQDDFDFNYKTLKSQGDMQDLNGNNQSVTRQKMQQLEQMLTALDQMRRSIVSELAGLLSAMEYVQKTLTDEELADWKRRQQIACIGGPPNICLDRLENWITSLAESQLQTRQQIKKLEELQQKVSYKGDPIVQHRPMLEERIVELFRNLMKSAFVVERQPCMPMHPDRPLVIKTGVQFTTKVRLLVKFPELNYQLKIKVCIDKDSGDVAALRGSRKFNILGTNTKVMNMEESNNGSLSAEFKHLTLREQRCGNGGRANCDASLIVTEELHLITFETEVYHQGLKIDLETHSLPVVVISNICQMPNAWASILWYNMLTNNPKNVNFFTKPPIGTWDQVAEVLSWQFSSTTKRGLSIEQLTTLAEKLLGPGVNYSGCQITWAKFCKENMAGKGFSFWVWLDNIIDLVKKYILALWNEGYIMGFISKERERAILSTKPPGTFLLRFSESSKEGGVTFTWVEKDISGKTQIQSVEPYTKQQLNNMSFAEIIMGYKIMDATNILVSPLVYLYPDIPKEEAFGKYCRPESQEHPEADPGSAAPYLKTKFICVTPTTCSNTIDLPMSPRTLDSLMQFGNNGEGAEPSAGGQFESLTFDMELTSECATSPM
Method: Electrophoretic mobility shift assays were performed using whole-cell extracts prepared from HepG2 cells without and with stimulation with IL-6 (30 ng/ml) for 30 min. Protein (20 μg) was incubated with radiolabeled duplex oligonucleotide (hSIE) and DMSO without or with the indicated compounds (300 uM) for 60 minutes at 37° C. then separated by PAGE. The gel was dried and autoradiographed; the portion of the gel corresponding to the Stat3-bound hSIE band is shown. Data shown are representative of 2 studies.
Electrophoretic Mobility Shift Assay (EMSA): EMSA was performed using the hSIE radiolabeled duplex oligonucleotide as a probe as described (Tweardy et al., 1995). Briefly, high salt extracts were prepared from HepG2 cells incubated without or with IL-6 (30 ng/ml) for 30 minutes. Protein concentration was determined by Bradford Assay and 20 ug of extract was incubated with compound (300 uM) for 60 minutes at 37° C. […] Gels were dried and autoradiographed.
Once in the nucleus, Stat3 dimers bind to specific DNA elements to activate and, in some instances, repress gene transcription. […] Compounds that bind to the phosphopeptide-binding site of Stat3 might be expected to do the same. […]

[2] = test system: breast cancer cell lines (MDA-MB-468, MDA-MB-231, MBA-MD-435, MCF7, MDA-MB-453); assay: Breast cancer cell line apoptosis assay (nucleosome ELISA); assay type: cell-based, human
Method: Breast cancer cell line apoptosis assay. Human breast carcinoma cell lines MDA-MB-468, MDA-MB-231, MBA-MD-435 and MCF7 were kindly provided by Dr. Powel H. Brown (Breast Cancer Center, Baylor College of Medicine). Breast cancer cell line, MDA-MB-453 was kindly provided by Dr. Shou Jiang (Breast Cancer Center, Baylor College of Medicine). All cell lines were grown in DMEM medium supplemented with 10% fetal bovine serum (FBS), 25,000 units penicillin G, 25,000 ug streptomycin, and 131.4 mg L-Glutamine and cultured in the incubator under the condition of 95% air, 5% CO2 at 37° C. (Garcia et al., 2001). Cells were seeded at 2,500 cells/cm^2 into 12-well plates. At 80% confluency, cells were washed with PBS and supplemented with fresh medium containing compound or the topoisomerase I-inhibitor, camptothecin, at 0, 0.1, 03, 1, 3, 10, 30, 100, 300 μM. At 24 hours, treatment was terminated by removing the medium from each well. Cells were lysed with cell lysis buffer ([…] for 30 minutes at 25° C.). Cell lysate (200 μl) was centrifuged at 200×g for 10 minutes and […] of each supernatant was assayed for nucleosomes using the Cell Death Detection ELISA (Roche Applied Science) as described by the manufacturer. The percent maximum nucleosome level was calculated by dividing the nucleosome level by the maximum nucleosome level achieved in the assay and multiplying by 100. This value was plotted as a function of the log compound concentration and the best-fitting curve generated using 4-Parameter Logistic Model/Dose Response/XLfit 4.2, IDBS software.

recombinant Stat3 (binding to EGFR Y1068 phosphododecapeptide), sequence (P40763 whole entry, species assumed): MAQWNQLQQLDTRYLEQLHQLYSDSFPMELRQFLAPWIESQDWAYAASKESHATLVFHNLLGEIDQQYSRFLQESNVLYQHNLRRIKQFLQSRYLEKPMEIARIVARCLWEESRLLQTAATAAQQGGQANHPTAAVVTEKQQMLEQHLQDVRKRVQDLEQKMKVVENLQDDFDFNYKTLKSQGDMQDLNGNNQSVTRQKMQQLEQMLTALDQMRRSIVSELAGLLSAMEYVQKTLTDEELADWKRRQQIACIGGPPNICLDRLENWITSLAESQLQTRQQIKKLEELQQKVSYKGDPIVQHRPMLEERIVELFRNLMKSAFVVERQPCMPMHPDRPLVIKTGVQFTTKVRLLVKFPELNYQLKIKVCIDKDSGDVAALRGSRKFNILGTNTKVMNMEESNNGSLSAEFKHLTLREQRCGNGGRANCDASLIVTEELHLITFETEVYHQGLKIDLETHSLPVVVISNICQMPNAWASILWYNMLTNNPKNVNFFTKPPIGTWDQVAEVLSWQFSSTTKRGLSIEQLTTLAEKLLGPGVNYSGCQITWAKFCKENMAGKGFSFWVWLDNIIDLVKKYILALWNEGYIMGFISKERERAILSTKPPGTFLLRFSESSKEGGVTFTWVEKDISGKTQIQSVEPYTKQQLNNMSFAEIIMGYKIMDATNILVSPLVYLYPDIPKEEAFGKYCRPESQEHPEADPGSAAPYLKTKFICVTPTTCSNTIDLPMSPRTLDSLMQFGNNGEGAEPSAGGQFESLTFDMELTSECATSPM

Row | Compound | IC50 [1] | amount of hSIE shifted (Stat3:hSIE band intensity) (Stat3:hSIE complex) | apoptosis of breast cancer cell lines with constitutive Stat3 activation [2]
1 | O=C(O)c1ccc(C=CC(=O)c2ccc3c(c2)OCCO3)cc1 [Cpd3, 4-[3-(2,3-dihydro-1,4-benzodioxin-6-yl)-3-oxo-1-propen-1-yl]benzoic acid] | 447 µM | reduced the amount of hSIE shifted by half or greater | induced apoptosis preferentially
2 | CCOc1cc(C=C2C(=O)c3ccccc3C2=O)cc(Cl)c1OCc1cccc(C(=O)O)c1 [Cpd3-2, 3-({2-chloro-4-[(1,3-dioxo-1,3-dihydro-2H-inden-2-ylidene)methyl]-6-ethoxyphenoxy}methyl)benzoic acid] | 256 µM |  | 
3 | CCN1C(=O)C(=Cc2ccc(-c3cc(C(=O)O)ccc3Cl)o2)C(=O)N(CC)C1=S [Cpd30-12, 4-chloro-3-{5-[(1,3-diethyl-4,6-dioxo-2-thioxotetrahydro-5(2H)-pyrimidinylidene)methyl]-2-furyl}benzoic acid] | 114 µM |  | 
